The target of this test is T1, human C5aR(CD88) (Homo sapiens, UniProt P21730).
T1 construct: expressed in transfected cells; host or cells: rat basophilic leukemia cells (RBL)
T1 sequence (P21730 1-350): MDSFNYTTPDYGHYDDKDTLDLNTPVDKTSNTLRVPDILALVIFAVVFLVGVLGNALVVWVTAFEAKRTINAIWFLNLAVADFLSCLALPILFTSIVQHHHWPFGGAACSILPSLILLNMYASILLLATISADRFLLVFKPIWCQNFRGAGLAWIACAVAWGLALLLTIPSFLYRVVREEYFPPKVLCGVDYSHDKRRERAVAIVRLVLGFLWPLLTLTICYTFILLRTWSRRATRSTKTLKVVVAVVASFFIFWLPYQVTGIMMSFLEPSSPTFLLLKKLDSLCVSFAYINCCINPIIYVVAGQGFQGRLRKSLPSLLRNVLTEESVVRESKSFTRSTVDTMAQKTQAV
Briefly: Determination of the IC50 value in an enzyme release assay (functional assay, antagonistic activity). It counts as cell-based. The following applies: antagonistic activity; IC50 group in enzyme release assay, RBL cells expressing human C5aR(CD88); read-out: activity (group).

Positions of bridges follow the written chain, without caps; N, C: chain ends. Non-standard residues stand in square brackets, D forms with d. Residues, ends and D or L forms follow the SMILES beside them. Phe(3-Cl) = N[C@@H](Cc1cccc(Cl)c1)C(=O)O; Phe(3-OMe) = COc1cccc(C[C@H](N)C(=O)O)c1; Phe(3-F) = N[C@@H](Cc1cccc(F)c1)C(=O)O; Phe(4-F) = N[C@@H](Cc1ccc(F)cc1)C(=O)O; Phe(2-F) = N[C@@H](Cc1ccccc1F)C(=O)O; Bta = N[C@@H](Cc1csc2ccccc12)C(=O)O; cisHyp = O=C(O)[C@@H]1C[C@H](O)CN1; d(hCha) = N[C@H](CCC1CCCCC1)C(=O)O; Hyp = O=C(O)[C@@H]1C[C@@H](O)CN1; NMeF = CN[C@@H](Cc1ccccc1)C(=O)O; d(hLeu) = CC(C)CC[C@@H](N)C(=O)O; 2Thi = N[C@@H](Cc1cccs1)C(=O)O; dCha = N[C@H](CC1CCCCC1)C(=O)O; dChg = N[C@@H](C(=O)O)C1CCCCC1; Nle = CCCC[C@H](N)C(=O)O; Orn = NCCC[C@H](N)C(=O)O; Aze = O=C(O)[C@@H]1CCN1

Take `CC(=O)NCC(=O)N[C@@H](Cc1ccccc1)C(=O)N[C@@H](CCCN)C(=O)N1CC[C@H]1C(=O)N[C@@H](C(=O)N[C@@H](Cc1csc2ccccc12)C(=O)N[C@@H](Cc1ccccc1)C(N)=O)C1CCCCC1` [Compound 155, Ac-Gly-Phe-Orn-Aze-chg-Bta-Phe-NH2] (Ac-GF[Orn][Aze][dChg][Bta]F-NH2): the IC50 was in the range of 50 to 200 nM.

Turning to `CC(=O)NCC(=O)N[C@@H](Cc1ccccc1)C(=O)N[C@@H](CCCN)C(=O)N1CC[C@H]1C(=O)N[C@H](CCC1CCCCC1)C(=O)N[C@@H](Cc1csc2ccccc12)C(=O)N[C@@H](Cc1ccccc1)C(N)=O` [Compound 156, Ac-Gly-Phe-Orn-Aze-hch-Bta-Phe-NH2] (Ac-GF[Orn][Aze][d(hCha)][Bta]F-NH2), the IC50 fell in the range of 50 to 200 nM.

With `CC(=O)NCC(=O)N[C@@H](Cc1cccs1)C(=O)N[C@@H](CCCN)C(=O)N1CC[C@H]1C(=O)N[C@H](CC1CCCCC1)C(=O)N[C@@H](Cc1csc2ccccc12)C(=O)N[C@@H](Cc1ccccc1)C(N)=O` [Compound 157, Ac-Gly-Thi-Orn-Aze-cha-Bta-Phe-NH2] (Ac-G[2Thi][Orn][Aze][dCha][Bta]F-NH2), the IC50 is 20 to 50 nM.

On to `CC(=O)N1C[C@H](O)C[C@H]1C(=O)N[C@@H](Cc1ccccc1)C(=O)N[C@@H](CCCN)C(=O)N1CC[C@H]1C(=O)N[C@H](CC1CCCCC1)C(=O)N[C@@H](Cc1csc2ccccc12)C(=O)N[C@@H](Cc1ccccc1)C(N)=O` [Compound 159, Ac-Hyp-Phe-Orn-Aze-cha-Bta-Phe-NH2] (Ac-[Hyp]F[Orn][Aze][dCha][Bta]F-NH2), for which the IC50 was 20 to 50 nM.

Regarding `CC(=O)N[C@@H](CCCCN)C(=O)N[C@@H](Cc1ccccc1)C(=O)N[C@@H](CCCN)C(=O)N1CC[C@H]1C(=O)N[C@H](CC1CCCCC1)C(=O)N[C@@H](Cc1csc2ccccc12)C(=O)N[C@@H](Cc1ccccc1)C(N)=O` [Compound 160, Ac-Lys-Phe-Orn-Aze-cha-Bta-Phe-NH2] (Ac-KF[Orn][Aze][dCha][Bta]F-NH2), the IC50 is 20 to 50 nM.

For `CC(=O)N[C@@H](Cc1cccc(F)c1)C(=O)N[C@@H](CCCN)C(=O)N1CCC[C@H]1C(=O)N[C@H](CC1CCCCC1)C(=O)N[C@@H](Cc1csc2ccccc12)C(=O)N[C@@H](Cc1ccccc1)C(N)=O` [Compound 161, Ac-Mff-Orn-Pro-cha-Bta-Phe-NH2] (Ac-[Phe(3-F)][Orn]P[dCha][Bta]F-NH2), the IC50 is 50 to 200 nM.

With `CC(=O)N[C@@H](Cc1cccc(F)c1)C(=O)N[C@@H](CCCN)C(=O)N1CCC[C@H]1C(=O)N[C@H](CCC(C)C)C(=O)N[C@@H](Cc1csc2ccccc12)C(=O)N[C@@H](Cc1ccccc1)C(N)=O` [Compound 162, Ac-Mff-Orn-Pro-hle-Bta-Phe-NH2] (Ac-[Phe(3-F)][Orn]P[d(hLeu)][Bta]F-NH2), the IC50 lay in the range of 50 to 200 nM.

On to `CC(=O)N[C@@H](Cc1cccc(F)c1)C(=O)N[C@@H](CCCN)C(=O)N1CCC[C@H]1C(=O)N[C@H](CCC(C)C)C(=O)N[C@@H](Cc1cccc(Cl)c1)C(=O)N[C@@H](Cc1cccc(F)c1)C(N)=O` [Compound 163, Ac-Mff-Orn-Pro-hle-Mcf-Mff-NH2] (Ac-[Phe(3-F)][Orn]P[d(hLeu)][Phe(3-Cl)][Phe(3-F)]-NH2), for which the IC50 was in the range of 50 to 200 nM.

In the case of `COc1cccc(C[C@H](NC(C)=O)C(=O)N[C@@H](CCCN)C(=O)N2CCC[C@H]2C(=O)N[C@H](CCC(C)C)C(=O)N[C@@H](Cc2ccc(F)cc2)C(=O)N[C@@H](Cc2ccccc2)C(N)=O)c1` [Compound 164, Ac-Mmy-Orn-Pro-hle-Pff-Phe-NH2] (Ac-[Phe(3-OMe)][Orn]P[d(hLeu)][Phe(4-F)]F-NH2), the IC50 was 50 to 200 nM.

`CC(=O)N(C)[C@@H](Cc1ccccc1)C(=O)N[C@@H](CCCN)C(=O)N1CCC[C@H]1C(=O)N[C@H](CC1CCCCC1)C(=O)N[C@@H](Cc1csc2ccccc12)C(=O)N[C@@H](Cc1ccccc1)C(N)=O` [Compound 165, Ac-NMF-Orn-Pro-cha-Bta-Phe-NH2] (Ac-[NMeF][Orn]P[dCha][Bta]F-NH2): the IC50 lay in the range of 50 to 200 nM.

For the compound `CC(=O)N[C@@H](Cc1ccccc1F)C(=O)N[C@@H](CCCN)C(=O)N1CCC[C@H]1C(=O)N[C@H](CC1CCCCC1)C(=O)N[C@@H](Cc1csc2ccccc12)C(=O)N[C@@H](Cc1ccccc1)C(N)=O` [Compound 166, Ac-Off-Orn-Pro-cha-Bta-Phe-NH2] (Ac-[Phe(2-F)][Orn]P[dCha][Bta]F-NH2), the IC50 lay within 20 to 50 nM.

Consider `CC(=O)N[C@@H](Cc1ccccc1F)C(=O)N[C@@H](CCCN)C(=O)N1CCC[C@H]1C(=O)N[C@H](CCC(C)C)C(=O)N[C@@H](Cc1csc2ccccc12)C(=O)N[C@@H](Cc1ccccc1)C(N)=O` [Compound 167, Ac-Off-Orn-Pro-hle-Bta-Phe-NH2] (Ac-[Phe(2-F)][Orn]P[d(hLeu)][Bta]F-NH2), for which the IC50 fell in the range of 20 to 50 nM.

In the case of `CC(=O)N[C@@H](CCCN)C(=O)N[C@@H](Cc1ccccc1)C(=O)N[C@@H](CCCN)C(=O)N1CC[C@H]1C(=O)N[C@H](CC1CCCCC1)C(=O)N[C@@H](Cc1csc2ccccc12)C(=O)N[C@@H](Cc1ccccc1)C(N)=O` [Compound 168, Ac-Orn-Phe-Orn-Aze-cha-Bta-Phe-NH2] (Ac-[Orn]F[Orn][Aze][dCha][Bta]F-NH2), the IC50 is 50 to 200 nM.

On to `CC(=O)N[C@@H](Cc1ccc(F)cc1)C(=O)N[C@@H](CCCN)C(=O)N1CCC[C@H]1C(=O)N[C@H](CC1CCCCC1)C(=O)N[C@@H](Cc1csc2ccccc12)C(=O)N[C@@H](Cc1ccccc1)C(N)=O` [Compound 169, Ac-Pff-Orn-Pro-cha-Bta-Phe-NH2] (Ac-[Phe(4-F)][Orn]P[dCha][Bta]F-NH2), for which the IC50 fell in the range of 20 to 50 nM.

On to `CC(=O)N[C@@H](Cc1ccc(F)cc1)C(=O)N[C@@H](CCCN)C(=O)N1CCC[C@H]1C(=O)N[C@H](CCC(C)C)C(=O)N[C@@H](Cc1csc2ccccc12)C(=O)N[C@@H](Cc1ccccc1)C(N)=O` [Compound 170, Ac-Pff-Orn-Pro-hle-Bta-Phe-NH2] (Ac-[Phe(4-F)][Orn]P[d(hLeu)][Bta]F-NH2), for which the IC50 is 50 to 200 nM.

Take `CC(=O)N[C@@H](Cc1ccc(F)cc1)C(=O)N[C@@H](CCCN)C(=O)N1CCC[C@H]1C(=O)N[C@H](CCC(C)C)C(=O)N[C@@H](Cc1cccc(Cl)c1)C(=O)N[C@@H](Cc1ccc(F)cc1)C(N)=O` [Compound 171, Ac-Pff-Orn-Pro-hle-Mcf-Pff-NH2] (Ac-[Phe(4-F)][Orn]P[d(hLeu)][Phe(3-Cl)][Phe(4-F)]-NH2): the IC50 lay in the range of 50 to 200 nM.

For `CC(=O)N[C@@H](Cc1ccccc1)C(=O)N[C@H]1CSSC[C@@H](C(N)=O)NC(=O)[C@H](Cc2ccccc2)NC(=O)[C@H](Cc2csc3ccccc23)NC(=O)[C@@H](CC2CCCCC2)NC(=O)[C@@H]2CCCN2C1=O` [Compound 172, Ac-Phe-[Cys-Pro-cha-Bta-Phe-Cys]-NH2] (Ac-FCP[dCha][Bta]FC-NH2; disulfide 2-7), the IC50 fell in the range of 50 to 200 nM.

Consider `CCCC[C@@H]1NC(=O)[C@H](Cc2c[nH]c3ccccc23)NC(=O)[C@@H](CC2CCCCC2)NC(=O)[C@H](CC(N)=O)NC(=O)[C@@H](NC(=O)[C@H](Cc2ccccc2)NC(C)=O)CCCNC1=O` [Compound 173, Ac-Phe-[Orn-Asn-cha-Trp-Nle]] (Ac-F[Orn]N[dCha]W[Nle]; lactam 2-C), for which the IC50 lay in the range of 50 to 200 nM.

For `CCCC[C@@H]1NC(=O)[C@H](Cc2c[nH]c3ccccc23)NC(=O)[C@@H](CC2CCCCC2)NC(=O)[C@@H]2CCN2C(=O)[C@@H](NC(=O)[C@H](Cc2ccccc2)NC(C)=O)CCCNC1=O` [Compound 174, Ac-Phe-[Orn-Aze-cha-Trp-Nle]] (Ac-F[Orn][Aze][dCha]W[Nle]; lactam 2-C), the IC50 lay within 50 to 200 nM.

In the case of `CCCC[C@@H]1NC(=O)[C@H](Cc2c[nH]c3ccccc23)NC(=O)[C@@H](CC2CCCCC2)NC(=O)[C@@H]2C[C@H](O)CN2C(=O)[C@@H](NC(=O)[C@H](Cc2ccccc2)NC(C)=O)CCCNC1=O` [Compound 175, Ac-Phe-[Orn-Chy-cha-Trp-Nle]] (Ac-F[Orn][cisHyp][dCha]W[Nle]; lactam 2-C), the IC50 fell in the range of 50 to 200 nM.

As to `CC(=O)N[C@@H](Cc1ccccc1)C(=O)N[C@H]1CCCNC(=O)[C@H](Cc2ccccc2)NC(=O)[C@H](Cc2c[nH]c3ccccc23)NC(=O)[C@@H](CC2CCCCC2)NC(=O)[C@@H]2C[C@@H](OC(C)=O)CN2C1=O` [Compound 176, Ac-Phe-[Orn-HyA-cha-Trp-Phe]] (Ac-F[Orn][Hyp](Ac)[dCha]WF; lactam 2-C), the IC50 lay within 50 to 200 nM.

For `CC(=O)N[C@@H](Cc1ccccc1)C(=O)N[C@H]1CCCNC(=O)[C@H](Cc2ccccc2)NC(=O)[C@H](Cc2csc3ccccc23)NC(=O)[C@@H](CCC(C)C)NC(=O)[C@@H]2C[C@@H](O)CN2C1=O` [Compound 177, Ac-Phe-[Orn-Hyp-hle-Bta-Phe]] (Ac-F[Orn][Hyp][d(hLeu)][Bta]F; lactam 2-C), the IC50 was 50 to 200 nM.

For the compound `CC(=O)N[C@@H](Cc1ccccc1)C(=O)N[C@H]1CCCNC(=O)[C@H](Cc2ccccc2)NC(=O)[C@H](Cc2cccc(Cl)c2)NC(=O)[C@@H](CCC(C)C)NC(=O)[C@@H]2C[C@@H](O)CN2C1=O` [Compound 178, Ac-Phe-[Orn-Hyp-hle-Mcf-Phe]] (Ac-F[Orn][Hyp][d(hLeu)][Phe(3-Cl)]F; lactam 2-C), the IC50 was 50 to 200 nM.

As to `CCCC[C@@H]1NC(=O)[C@H](Cc2ccc(F)cc2)NC(=O)[C@@H](CCC(C)C)NC(=O)[C@@H]2C[C@@H](O)CN2C(=O)[C@@H](NC(=O)[C@H](Cc2ccccc2)NC(C)=O)CCCNC1=O` [Compound 179, Ac-Phe-[Orn-Hyp-hle-Pff-Nle]] (Ac-F[Orn][Hyp][d(hLeu)][Phe(4-F)][Nle]; lactam 2-C), the IC50 lay in the range of 50 to 200 nM.

Regarding `CC(=O)N[C@@H](Cc1ccccc1)C(=O)N[C@H]1CCCNC(=O)[C@H](Cc2ccccc2)NC(=O)[C@H](Cc2ccc(F)cc2)NC(=O)[C@@H](CCC(C)C)NC(=O)[C@@H]2C[C@@H](O)CN2C1=O` [Compound 180, Ac-Phe-[Orn-Hyp-hle-Pff-Phe]] (Ac-F[Orn][Hyp][d(hLeu)][Phe(4-F)]F; lactam 2-C), the IC50 lay within 50 to 200 nM.

Values taken from patent US20080161232A1, “C5a Receptor Antagonist” (JERINI AG, priority 2005, published 2008).
